Reference: patent publication US8648045B2, “VDAC1 compositions and methods of use thereof for regulating apoptosis” (Ben Gurion University of the Negev Research and Development …, priority 2005, dated 2014)
Ends that are not written are not given here.

Experiments:
[1] = test system: MEC-1 cell line; format: cell-based, human
Protocol: (§1) PBMCs (2×10^6 cells/sample) from CLL patients and healthy donors were treated with various concentrations of the peptide Antp-LP4-trp for 90 minutes. Cells were then gently washed once with PBS and stained with propidium iodide (PI) by adding 2.5 μl (1 mg/ml) and immediately analyzed for cell death. The level of cell death, reflected by the percentage of PI-positive cells, was determined by a flow cytometry analysis.
(§2) Preipheral blood mononuclear cells (PMBC) isolated from pateints having chronic lymphocytic leukemia (CLL) and MEC-1 cell lines (human chronic B-cell leukemia) were incubated for 90 min with Peptide N-ANTP (SEQ ID NO:73) at concentrations of 10-40 μM. Cell death was measured by PI staning and FACS analysis.

[2] = test system: SKOV-3; format: cell-based
Protocol: (§3) To determine apoptosis, cells were subjected to staining with 100 μg/ml acridine orange (AcOr) and 100 μg/ml ethidium bromide (EtBr) in PBS. Cells were centrifuged at 1500×g for 5 min at room temperature and resuspended in 25 μl complete medium, to which 2 μl of an AcOr/EtBr solution were added. The cells were then visualized by fluorescence microscopy (Olympus IX51) and images were recorded with an Olympus DP70 camera, using a SWB filter. In each independent experiment, in which early and late apoptotic cells were counted, approximately 250 cells were counted for each treatment.
(§4) The effect of the peptides N-ANTP (having the amino acid sequence of SEQ ID NO:73) and ANTP-LP4-trp (having the amino acid sequence of SEQ ID NO:15) on apoptotoc cell death was examined with cancer cells of various trypes. Table 6 below summarizes the cell line examined and concentration of each pepetide that gave 50% apoptotic cell death (IC50, μM).
(§5) All cells were grown in DMEM accept PC3, D-U145, Molt-4, Jurkat, Mec-1, U937 grown in RPMI medium and HUH7 grown in F12/DMEM medium.

[3] = test system: H358; format: cell-based
Protocol: as §3, §4, §5

[4] = test system: Hep-G2; format: cell-based
Protocol: as §3, §4, §5

[5] = test system: A549; format: cell-based
Protocol: as §3, §4, §5

[6] = test system: K562; format: cell-based
Protocol: as §3, §4, §5

[7] = test system: HUH7; format: cell-based
Protocol: as §3, §4, §5

[8] = test system: T3M4; format: cell-based
Protocol: as §3, §4, §5

[9] = test system: A375; format: cell-based
Protocol: as §3, §4, §5

[10] = test system: MDA-MB-231; format: cell-based
Protocol: as §3, §4, §5

[11] = test system: THP-1; format: cell-based
Protocol: as §3, §4, §5

[12] = test system: MCF7; format: cell-based
Protocol: as §3, §4, §5

[13] = test system: JURKAT; format: cell-based
Protocol: as §3, §4, §5

[14] = test system: AsPC1; format: cell-based
Protocol: as §3, §4, §5

[15] = test system: U937, MOLT4 and MEC-1 cells; assay: Cancer cell death by L- or D-amino acid peptide; format: cell-based, human; conditions: average of two experiments
Description: The results are average of two experiments

[16] = test system: HeLa
Protocol: as §3
The effect of the peptides N-ANTP (having the amino acid sequence of SEQ ID NO:73) and ANTP-LP4-trp (having the amino acid sequence of SEQ ID NO:15) on apoptotoc cell death was examined with cancer cells of various trypes.
as §5

[17] = test system: PBMCs isolated from CLL patients; format: cell-based, human
Protocol: Peripheral blood mononuclear cells (PBMCs) were isolated from venous blood of patients with chronic lymphocytic leukemia (CLL) by Ficoll-Paque PLUS (GE Healthcare, Israel) density gradient centrifugation. After informed consent, venous blood (10 ml) was drawn from CLL patients satisfying diagnostic criteria for CLL or from normal adult donors. Blood was collected into heparin tubes and diluted 1:1 with balance solution (composed of two stock solutions, A and B, in 1:9 ratio, respectively. Solution A contained: D-glucose 1%, CaCl2 5×10^−5M, MgCl2 9.8×10^−4M, KCl 5.4×10^−3M, Tris 0.145M, pH 7.6. Solution B contained NaCl 0.14M. The balance solution was prepared freshly every week. The diluted blood sample was subsequently carefully layered on Ficoll-Paque Plus (10 ml of diluted blood: 15 ml Ficoll) in 50 ml conical tubes. Tubes were centrifuged at 400×g (with minimal acceleration and deceleration) for 40 minutes at 18-20° C. The mononuclear cells fine layer was transferred to a new centrifuge tube. Cells were washed 3 times with balance solution and re-suspended in a culture medium appropriate to the application.
as §1, §2
In ex vivo experiments, peripheral blood mononuclear cells (PBMCs) isolated from healthy individuals or CLL patients were incubated for 90 min with the indicated concentration of the ANTP-LP4-trp peptide. Cell death was assayed by PI staining and FACS analysis (healthy donors, n=34; CLL donors, n=39).

[18] = test system: PBMCs isolated from healthy donors; assay: Cell death, PI staining and FACS; format: cell-based, human; conditions: 90 min, n=34
Protocol: Peripheral blood mononuclear cells (PBMCs) were isolated from venous blood of patients with chronic lymphocytic leukemia (CLL) by Ficoll-Paque PLUS (GE Healthcare, Israel) density gradient centrifugation. After informed consent, venous blood (10 ml) was drawn from CLL patients satisfying diagnostic criteria for CLL or from normal adult donors. […]
PBMCs (2×10^6 cells/sample) from CLL patients and healthy donors were treated with various concentrations of the peptide Antp-LP4-trp for 90 minutes. Cells were then gently washed once with PBS and stained with propidium iodide (PI) by adding 2.5 μl (1 mg/ml) and immediately analyzed for cell death. The level of cell death, reflected by the percentage of PI-positive cells, was determined by a flow cytometry analysis. […]

[19] = test system: Mec-1; format: cell-based, human
Protocol: as §3, §4, §5

[20] = test system: T-Rex; format: cell-based, human
Protocol: as §3, §4, §5

[21] = test system: U87; format: cell-based, human
Protocol: as §3, §4, §5

[22] = test system: Panc-1; format: cell-based, human
Protocol: as §3, §4, §5

[23] = test system: U937; format: cell-based, human
Protocol: as §3, §4, §5

[24] = test system: MOLT-4; format: cell-based, human
Protocol: as §3, §4, §5

[25] = format: physicochemical
Protocol: The peptides N-ANTP (C-terminus), ANTP-LP4-trp, TAT-LP4-trp and Tf-LP4-trp were synthesized by GL Biochem (Shanghai, China). The N-terminal peptide was water-soluble, while the other peptides were dissolved in DMSO. The concentration of DMSO in control and peptide-containing samples was up to 4%.

[26] = test system: PBMCs; format: cell-based, human
Protocol: as §3, §4, §5

[27] = test system: PC-3; assay: Apoptosis induction by peptides, IC50; format: cell-based; conditions: PC-3, Prostate adenocarcinoma, Mut-P53, Androg↑
Protocol: as §3, §4, §5

CC[C@H](C)[C@H](NC(=O)[C@H](CCCCN)NC(=O)[C@@H](NC(=O)[C@H](CCC(N)=O)NC(=O)[C@H](CCCNC(=N)N)NC(=O)[C@@H](N)CCSC)[C@@H](C)CC)C(=O)N[C@@H](Cc1c[nH]c2ccccc12)C(=O)N[C@@H](Cc1ccccc1)C(=O)N[C@@H](CCC(N)=O)C(=O)N[C@@H](CC(N)=O)C(=O)N[C@@H](CCCNC(=N)N)C(=O)N[C@@H](CCCNC(=N)N)C(=O)N[C@@H](CCSC)C(=O)N[C@@H](CCCCN)C(=O)N[C@@H](Cc1c[nH]c2ccccc12)C(=O)N[C@@H](CCCCN)C(=O)N[C@@H](CCCCN)C(=O)N[C@@H](CO)C(=O)N[C@@H](Cc1c[nH]c2ccccc12)C(=O)N[C@H](C(=O)N[C@@H](Cc1c[nH]c2ccccc12)C(=O)N[C@@H](CCC(=O)O)C(=O)N[C@@H](CCCCN)C(=O)N[C@@H](CCCCN)C(=O)N[C@@H](CC(C)C)C(=O)N[C@@H](CCC(=O)O)C(=O)N[C@H](C(=O)N[C@@H](C)C(=O)N[C@H](C(=O)N[C@@H](CC(N)=O)C(=O)N[C@@H](CC(C)C)C(=O)N[C@@H](C)C(=O)N[C@@H](Cc1c[nH]c2ccccc12)C(=O)N[C@H](C(=O)N[C@@H](C)C(=O)NCC(=O)N[C@@H](CC(N)=O)C(=O)N[C@@H](CO)C(=O)N[C@@H](CC(N)=O)C(=O)N[C@@H](CCCCN)C(=O)N[C@@H](Cc1c[nH]c2ccccc12)C(=O)N[C@H](C(=O)N[C@@H](Cc1c[nH]c2ccccc12)C(=O)N[C@@H](CCCCN)C(=O)O)[C@@H](C)O)[C@@H](C)O)C(C)C)[C@@H](C)O)[C@@H](C)O [ANTP-LP4-trp]
IC50 [1]: < 2000 nM | IC50 [2]: 1000 ± 200 nM | IC50 [3]: 1500 ± 500 nM | IC50 [4]: 1600 ± 600 nM | IC50 [5]: 1500 ± 200 nM | IC50 [6]: 260 ± 100 nM | IC50 [7]: 600 ± 300 nM | IC50 [8]: 500 ± 200 nM | IC50 [9]: 6.4 ± 0.6 µM | IC50 [10]: 1600 ± 600 nM | IC50 [11]: 300 ± 100 nM | IC50 [12]: 1900 ± 40 nM | IC50 [13]: 230 ± 100 nM | IC50 [14]: 2.7 ± 1.7 µM | cell-death induction, L- versus D-amino acid peptide [15]: irrespective to the D/L configuration | IC50 [16]: 900 ± 30 nM | IC50 [17]: 200 to 250 nM | correlation between relative amount of cancer cells (CD19+/CD5+) and peptide-induced cell death ([17]; 0.375 μM): tight correlation | cell death of CLL-derived PBMCs ([17]; 90 min, CLL donors, n=39): highly effective in inducing cancer cell death | effect on PBMCs isolated from healthy donors [18]: marginal | IC50 [19]: 530 ± 100 nM | IC50 [20]: 6.5 ± 0.9 µM | IC50 [21]: 1400 ± 500 nM | IC50 [22]: 6.4 ± 0.6 µM | IC50 [23]: 280 ± 100 nM | IC50 [24]: 760 ± 200 nM

MAVPPTYADLGKSARDVFTKGYGFGLMRQIKIWFQNRRMKWKK [N-ANTP]
IC50 [1]: 3000 to 4000 nM | solubility [25]: water-soluble | IC50 [2]: 2000 ± 800 nM | IC50 [3]: 2700 ± 200 nM | IC50 [4]: 3600 ± 1300 nM | IC50 [5]: 2700 ± 500 nM | IC50 [6]: 600 ± 400 nM | IC50 [7]: 1300 ± 300 nM | IC50 [8]: 1300 ± 400 nM | IC50 [9]: 2.8 ± 0.4 µM | IC50 [10]: 1500 ± 300 nM | IC50 [11]: 530 ± 30 nM | IC50 [12]: 2500 ± 600 nM | IC50 [13]: 350 ± 500 nM | IC50 [14]: 6.1 ± 0.1 µM | IC50 [16]: 2700 ± 800 nM | IC50 [17]: 3000 to 4000 nM | IC50 [19]: 930 ± 100 nM | IC50 [20]: 5.6 ± 0.9 µM | IC50 [21]: 1400 ± 600 nM | IC50 [26]: 10.1 ± 1.2 µM | IC50 [22]: 6.2 ± 0.6 µM | IC50 [23]: 580 ± 200 nM | IC50 [24]: 1100 ± 300 nM | IC50 [27]: 400 ± 100 nM
